Reference: paper PMC5078989, “Targeted inhibition of the COP9 signalosome for treatment of cancer” (Nature Communications, 2016)
pEC50: −log10 of the molar value.

Test system: panel of cancer cell lines
Assay: Cell viability (CellTiter-Glo) dose-response across cancer cell line panel;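 for pEC50: after 72 h compound incubation with CellTiter-Glo ATP readout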
Format: cell-based, human
Conditions: for pEC50: Homo sapiens
Description: Next, we explored the effect of CSN5 inhibition on the viability of cancer cells. To obtain a comprehensive picture, we generated dose–response curves with a CSN5 inhibitor across more than 500 cancer cell lines in a previously described standardized setting[47] (Supplementary Data 1).
A standardized CellTiter-Glo Assay (Promega #G7570) based on the quantification of ATP was applied according to the manufacturer's protocol to measure the amount of viable cells in culture. In brief, cells were seeded into 384-well plates at optimal density for each cell line. After 4 h, compounds were added at different concentrations in growth medium and incubated for another 72 h in a humidifying chamber at 37 °C and 5% CO2. […] EC50 values were calculated from the plot of percentage of inhibition versus inhibitor concentration using the nonlinear regression analysis software Origin 7.5SR6 (OriginLab Corp.).

- pEC50 (SR-786, SR-786): 8.65
- pEC50 (ST486, ST486): 8.20
- pEC50 (SU-DHL10, SU-DHL-10): 7.84
- pEC50 (SU-DHL-4, SU-DHL-4): 8.48
- pEC50 (SU-DHL-8, SU-DHL-8): 8.42
- pEC50 (SUM52, cell line SUM-52): 8.26
- pEC50 (SUM52PE): 8.21
- pEC50 (SUP-M2, SUP-M2): 8.48
- pEC50 (SW480, SW480): 8.15
- pEC50 (SW837, SW837): 8.23
- pEC50 (SW948, SW948): 8.14
- pEC50 (SW1088, SW 1088): 8.23
- pEC50 (SW1271, cell line SW 1271): 7.67
- pEC50 (SW1353, SW 1353): 7.41
- pEC50 (SW1417, SW1417): 8.19
- pEC50 (SW1573, SW 1573): 7.69
- pEC50 (SW1783, SW 1783): 7.79
- pEC50 (SW1990, SW 1990): 8.06
- pEC50 (SW-620, SW620): 8.10
- pEC50 (T47D, T-47D): 7.98
- pEC50 (T84, T84): 7.92
- pEC50 (T98G): 8.02
- pEC50 (T-24, T24): 8.01
- pEC50 (TC-71, TC-71): 7.94
- pEC50 (TE-4): 8.23
- pEC50 (TE-6, TE-6): 7.36
- pEC50 (TE-10, TE-10): 7.95
- pEC50 (TE-11, cell line TE-11): 7.54
- pEC50 (TE-15, cell line TE-15): 7.78
- pEC50 (TEN): 8.00
- pEC50 (TF-1, TF-1): 8.78
- pEC50 (THP-1, THP-1): 8.18
- pEC50 (TOV21G, cell line TOV-21G): 8.37
- pEC50 (TOV112D, TOV-112D): 7.54
- pEC50 (TT2609-C02): 7.71
- pEC50 (U266B1): 8.47
- pEC50 (U-118-MG, U-118 MG): 8.11
- pEC50 (U-251, U-251 MG): 8.16
- pEC50 (U-937, U-937): 8.24
- pEC50 (UACC-62, UACC-62): 7.71
- pEC50 (UACC-257, UACC-257): 7.96
- pEC50 (UMUC3, UM-UC-3): 7.82
- pEC50 (VM-CUB-1, VM-CUB1): 7.99
- pEC50 (VMRC-RCW): 8.28
- pEC50 (WM 266-4, WM-266-4): 7.61
- pEC50 (WM793, WM-793): 7.81
- pEC50 (WM983B, WM-983B): 8.06
- pEC50 (WM-88): 8.11
- pEC50 (WM-115, WM-115): 8.20
- pEC50 (WM-1799, WM1799): 8.13
- pEC50 (WSUDLCL2, WSU-DLCL2): 8.38
- pEC50 (YAPC): 7.64
- pEC50 (YKG-1, YKG1): 8.14
- pEC50 (YMB-1): 7.79
- pEC50 (Z-138, cell line Z-138): 8.24
- pEC50 (ZR-75-1, ZR-75-1): 7.68
- pEC50 (ZR-75-30, ZR-75-30): 7.99
- pEC50 (cell line AGS): 8.03
- pEC50 (cell line BDCM): 8.10
- pEC50 (cell line EB1): 8.19
- pEC50 (cell line EB2): 8.19
- pEC50 (cell line GCT): 7.72
- pEC50 (cell line GI-1): 8.05
- pEC50 (cell line H4): 7.94
- pEC50 (cell line HH): 8.52
- pEC50 (cell line HuG1-N): 8.74
- pEC50 (cell line JHH-5): 7.77
- pEC50 (cell line KS-1): 8.00
- pEC50 (cell line KURAMOCHI): 7.51
- pEC50 (cell line LC-1/sq-SF): 7.73
- pEC50 (cell line LP-6): 7.99
- pEC50 (cell line MEL-HO): 8.28
- pEC50 (cell line MJ): 8.55
- pEC50 (cell line MOG-G-UVW): 7.70
- pEC50 (cell line Mel285): 8.09
- pEC50 (cell line NCI-H2330): 7.49
- pEC50 (cell line OMM2.3): 7.92
- pEC50 (cell line OMM2.5): 7.66
- pEC50 (cell line PC-3): 7.85
- pEC50 (cell line RERF-LC-MS): 7.38
- pEC50 (cell line RKO): 8.07
- pEC50 (cell line RL): 8.49
- pEC50 (cell line T778): 7.73
- pEC50 (cell line TE 617.T): 8.16
- pEC50 (cell line TE-1): 7.81
- pEC50 (cell line TE-5): 8.10
- pEC50 (cell line VMRC-RCZ): 8.07
- pEC50 (cell line WS1): 7.75
Compound: CC(C)C[C@H](NC(=O)[C@H](Cc1ccccc1)NC(=O)c1cnccn1)B(O)O [Bortezomib]
- AMAX (Hs 611.T): -95.5359
- AMAX (Hs 729): -96.5684
- AMAX (Hs 936.T): -95.7878
- AMAX (Hs 940.T): -97.1382
- AMAX (IGR-1): -97.3166
- AMAX (JHOM-1): -95.2005
- AMAX (JVM-3): -96.4391
- AMAX (KARPAS-620): -98.4285
- AMAX (KCL-22): -97.2427
- AMAX (KHM-1B): -96.7668
- AMAX (KLE): -91.799
- AMAX (KMS-28BM): -96.7467
- AMAX (KO52): -96.777
- AMAX (KU812): -97.0553
- AMAX (KYM-1): -96.8984
- AMAX (KYO-1): -96.2465
- AMAX (Ki-JK): -96.7338
- AMAX (L-363): -96.7867
- AMAX (LAMA-84): -97.7452
- AMAX (LCLC-97TM1): -96.2648
- AMAX (LCLC-103H): -95.0382
- AMAX (LMSU): -95.8427
- AMAX (LU99): -96.2849
- AMAX (LXF-289): -97.2241
- AMAX (Li-7): -96.9283
- AMAX (MB 157): -95.9545
- AMAX (MHH-NB-11): -96.8993
- AMAX (MOLM-16): -96.6028
- AMAX (MOLP-8): -96.4824
- AMAX (MONO-MAC-1): -98.0152
- AMAX (MONO-MAC-6): -96.8971
- AMAX (NCI-H28): -96.1421
- AMAX (NCI-H841): -95.8407
- AMAX (NCI-H1184): -95.7721
- AMAX (NCI-H1341): -97.2357
- AMAX (NCI-H1869): -96.9482
- AMAX (NCI-H2073): -96.9774
- AMAX (NOMO-1): -95.3675
- AMAX (OC 316): -96.5256
- AMAX (OCI-AML2): -96.7921
- AMAX (OCI-AML3): -95.7952
- AMAX (OCI-AML5): -97.923
- AMAX (OCI-M1): -95.2925
- AMAX (ONCO-DG-1): -96.4992
- AMAX (OS-RC-2): -96.3701
- AMAX (OUMS-23): -95.8674
- AMAX (OV7): -92.7444
- AMAX (P31/FUJ): -96.7178
- AMAX (PA-TU-8988S): -97.262
- AMAX (PE/CA-PJ41 (clone D2)): -95.4895
- AMAX (RI-1): -96.2187
- AMAX (RMUG-S): -96.7615
- AMAX (RVH-421): -95.9743
- AMAX (SF126): -95.9565
- AMAX (SK-N-SH): -96.5195
- AMAX (SNU-216): -96.337
- AMAX (SW620): -96.6127
- AMAX (SW837): -95.7546
- AMAX (SW948): -95.7047
- AMAX (SW 1783): -94.9618
- AMAX (T84): -98.3103
- AMAX (T98G): -96.5841
- AMAX (T-47D): -97.6577
- AMAX (THP-1): -96.3023
- AMAX (U-118 MG): -95.817
- AMAX (UACC-257): -95.0265
- AMAX (VMRC-RCW): -96.9199
- AMAX (YMB-1): -91.0668
- Amax (high-concentration effect level) (across all cell lines of the panel, 72 h): −95% to −100
- AMAX (all cell lines of a selection from the panel (Fig. 3b)): ≤ −95%
